A short description of data set [1]: Hygroscopicity / deliquescence of the unformulated drug. It is filed as physicochemical. From the text:
It is particularly surprising that such a hygroscopic and deliquescent drug can be formulated in accordance with the present invention as an acceptably non-hygroscopic composition.

Data set [2] can be described thus: Solubility of the drug in matrix forming agents HPMC and PEG. It counts as physicochemical.

Turning to `CC(=N)NCCSC[C@](C)(N)C(=O)O` [S-[2-[(1-iminoethyl)amino]ethyl]-2-methyl-L-cysteine], the Hygroscopicity and deliquescence result in data set [1] is “extremely hygroscopic and deliquescent”. The “Solubility in HPMC and PEG” value in data set [2] is listed as “low solubility”. Consider “S-[2-[(1-iminoethyl)amino]ethyl]-2-methyl-L-cysteine dihydrochoride [Compound A]”, for which the Hygroscopicity and deliquescence entry in data set [1] was “extremely hygroscopic and deliquescent”.
